According to PubChem BioAssay (NCI):
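These data come from cells grown in 96-well plates and exposed to compound for 48 hours at five concentrations. At the GI50, growth is halved. The concentration for full growth arrest is given as TGI.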

Key:
Test in all cases: NCI-60 cell line screen, 48 h
[1] = test system: 786-0 renal
[2] = test system: A498 renal
[3] = test system: A549 NSCLC
[4] = test system: ACHN renal
[5] = test system: BT-549 breast
[6] = test system: CAKI-1 renal
[7] = test system: CCRF-CEM leukemia
[8] = test system: COLO 205 colon
[9] = test system: DU-145 prostate
[10] = test system: HCC-2998 colon
[11] = test system: HCT-116 colon
[12] = test system: HCT-15 colon
[13] = test system: HL-60(TB) leukemia
[14] = test system: HOP-62 NSCLC
[15] = test system: HOP-92 NSCLC
[16] = test system: HS 578T breast
[17] = test system: HT29 colon
[18] = test system: IGROV1 ovarian
[19] = test system: K-562 leukemia
[20] = test system: KM12 colon
[21] = test system: LOX IMVI melanoma
[22] = test system: M14 melanoma
[23] = test system: MALME-3M melanoma
[24] = test system: MCF7 breast
[25] = test system: MDA-MB-231 breast
[26] = test system: MDA-MB-435
[27] = test system: MOLT-4 leukemia
[28] = test system: NCI-H226 lung
[29] = test system: NCI-H23 lung
[30] = test system: NCI-H460 lung
[31] = test system: NCI-H522 lung
[32] = test system: NCI/ADR-RES ovarian
[33] = test system: OVCAR-3 ovarian
[34] = test system: OVCAR-4 ovarian
[35] = test system: OVCAR-5 ovarian
[36] = test system: OVCAR-8 ovarian
[37] = test system: PC-3 prostate
[38] = test system: RPMI-8226 leukemia
[39] = test system: RXF 393 renal
[40] = test system: SF-268 CNS
[41] = test system: SF-295 CNS
[42] = test system: SF-539 CNS
[43] = test system: SK-MEL-2 melanoma
[44] = test system: SK-MEL-28 melanoma
[45] = test system: SK-MEL-5 melanoma
[46] = test system: SK-OV-3 ovarian
[47] = test system: SN12C renal
[48] = test system: SNB-19 CNS
[49] = test system: SNB-75 CNS
[50] = test system: SR leukemia
[51] = test system: SW-620 colon
[52] = test system: T-47D breast
[53] = test system: TK-10 renal
[54] = test system: U251 CNS
[55] = test system: UACC-257 melanoma
[56] = test system: UACC-62 melanoma
[57] = test system: UO-31 renal

Compound: C=CC(=O)N1CC2(CCC(n3nc(-c4ccc(Oc5ccccc5)cc4)c4c(N)ncnc43)CC2)C1
- GI50 [1]: 30.4 nM
- TGI [1]: 1630 nM
- GI50 [2]: < 0.0223 µM
- GI50 [3]: 1460 nM
- TGI [3]: 9.41 µM
- GI50 [4]: < 0.0123 µM
- TGI [4]: 362 nM
- GI50 [5]: 245 nM
- TGI [5]: 9.78 µM
- GI50 [6]: 28.3 nM
- TGI [6]: 709 nM
- GI50 [7]: 3.65 µM
- TGI [7]: 21.9 µM
- GI50 [8]: 143 nM
- TGI [8]: 1280 nM
- GI50 [9]: 368 nM
- TGI [9]: 2210 nM
- GI50 [10]: 4.8 µM
- TGI [10]: 19.6 µM
- GI50 [11]: 40.7 nM
- TGI [11]: 1880 nM
- GI50 [12]: 200 nM
- TGI [12]: 12.1 µM
- GI50 [13]: 3.2 µM
- TGI [13]: 10 µM
- GI50 [14]: 10.3 nM
- TGI [14]: 6.5 µM
- GI50 [15]: < 0.014 µM
- TGI [15]: 366 nM
- GI50 [16]: 108 nM
- TGI [16]: 1540 nM
- GI50 [17]: < 0.0175 µM
- TGI [17]: 1340 nM
- GI50 [18]: < 0.0125 µM
- TGI [18]: 462 nM
- GI50 [19]: 698 nM
- TGI [19]: 25.6 µM
- GI50 [20]: 3.02 µM
- TGI [20]: 10.8 µM
- GI50 [21]: < 0.0106 µM
- TGI [21]: 847 nM
- GI50 [22]: 1430 nM
- TGI [22]: 5.23 µM
- GI50 [23]: 1500 nM
- TGI [23]: 9.21 µM
- GI50 [24]: 424 nM
- TGI [24]: 11.4 µM
- GI50 [25]: 281 nM
- TGI [25]: 11.1 µM
- GI50 [26]: 1740 nM
- TGI [26]: 7.13 µM
- GI50 [27]: 1930 nM
- TGI [27]: 6.39 µM
- GI50 [28]: 861 nM
- TGI [28]: 15 µM
- GI50 [29]: 4.39 µM
- TGI [29]: 17.3 µM
- GI50 [30]: 3.43 µM
- TGI [30]: 16.1 µM
- GI50 [31]: 67.6 nM
- TGI [31]: 995 nM
- GI50 [32]: 1740 nM
- TGI [32]: 17.5 µM
- GI50 [33]: 641 nM
- TGI [33]: 9.61 µM
- GI50 [34]: 1460 nM
- TGI [34]: 14.2 µM
- GI50 [35]: 130 nM
- TGI [35]: 16.6 µM
- GI50 [36]: 1850 nM
- TGI [36]: 13.1 µM
- GI50 [37]: 1090 nM
- TGI [37]: 9.2 µM
- GI50 [38]: 1510 nM
- TGI [38]: 5.8 µM
- GI50 [39]: 16.8 nM
- TGI [39]: 267 nM
- GI50 [40]: 255 nM
- TGI [40]: 6.04 µM
- GI50 [41]: 2300 nM
- TGI [41]: 15.7 µM
- GI50 [42]: 174 nM
- TGI [42]: 1910 nM
- GI50 [43]: 1500 nM
- TGI [43]: 3.63 µM
- GI50 [44]: 2450 nM
- TGI [44]: 14 µM
- GI50 [45]: 1550 nM
- TGI [45]: 2970 nM
- GI50 [46]: 52.5 nM
- TGI [46]: 787 nM
- GI50 [47]: 179 nM
- TGI [47]: 10.6 µM
- GI50 [48]: 1230 nM
- TGI [48]: 15.7 µM
- GI50 [49]: < 0.0151 µM
- TGI [49]: 174 nM
- GI50 [50]: 3.35 µM
- TGI [50]: 18.9 µM
- GI50 [51]: 3.98 µM
- TGI [51]: 21.7 µM
- GI50 [52]: 19.7 nM
- TGI [52]: 5.89 µM
- GI50 [53]: 36.2 nM
- TGI [53]: 266 nM
- GI50 [54]: 617 nM
- TGI [54]: 12.7 µM
- GI50 [55]: 1460 nM
- TGI [55]: 8.62 µM
- GI50 [56]: 1020 nM
- TGI [56]: 4.85 µM
- GI50 [57]: 46.8 nM
- TGI [57]: 1660 nM

Compound: Cn1cc(C2=C(c3cn(C)c4ccc(OCc5ccccc5)cc34)C(=O)NC2=O)c2ccccc21
- GI50 [1]: > 25000 nM
- TGI [1]: > 25000 nM
- GI50 [2]: > 25 µM
- TGI [2]: > 25 µM
- GI50 [3]: > 25000 nM
- TGI [3]: > 25 µM
- GI50 [4]: > 25 µM
- TGI [4]: > 25000 nM
- GI50 [5]: > 25000 nM
- TGI [5]: > 25 µM
- GI50 [6]: > 25000 nM
- TGI [6]: > 25000 nM
- GI50 [7]: > 25 µM
- TGI [7]: > 25 µM
- GI50 [8]: > 25000 nM
- TGI [8]: > 25000 nM
- GI50 [9]: > 25000 nM
- TGI [9]: > 25000 nM
- GI50 [10]: > 25 µM
- TGI [10]: > 25 µM
- GI50 [11]: > 25000 nM
- TGI [11]: > 25000 nM
- GI50 [12]: > 25000 nM
- TGI [12]: > 25 µM
- GI50 [13]: > 25 µM
- TGI [13]: > 25 µM
- GI50 [14]: > 25000 nM
- TGI [14]: > 25 µM
- GI50 [15]: > 25 µM
- TGI [15]: > 25000 nM
- GI50 [16]: > 21200 nM
- TGI [16]: > 25000 nM
- GI50 [17]: > 25 µM
- TGI [17]: > 25000 nM
- GI50 [18]: > 25 µM
- TGI [18]: > 25000 nM
- GI50 [19]: > 25000 nM
- TGI [19]: > 25 µM
- GI50 [20]: > 25 µM
- TGI [20]: > 25 µM
- GI50 [21]: > 25 µM
- TGI [21]: > 25000 nM
- GI50 [22]: > 25000 nM
- TGI [22]: > 25 µM
- GI50 [23]: > 25000 nM
- TGI [23]: > 25 µM
- GI50 [24]: > 25000 nM
- TGI [24]: > 25 µM
- GI50 [25]: > 25000 nM
- TGI [25]: > 25 µM
- GI50 [26]: > 25000 nM
- TGI [26]: > 25 µM
- GI50 [27]: > 25000 nM
- TGI [27]: > 25 µM
- GI50 [28]: > 25000 nM
- TGI [28]: > 25 µM
- GI50 [29]: > 25 µM
- TGI [29]: > 25 µM
- GI50 [30]: > 25 µM
- TGI [30]: > 25 µM
- GI50 [31]: > 25000 nM
- TGI [31]: > 25000 nM
- GI50 [32]: > 25000 nM
- TGI [32]: > 25 µM
- GI50 [33]: > 25000 nM
- TGI [33]: > 25 µM
- GI50 [34]: > 16900 nM
- TGI [34]: > 25 µM
- GI50 [35]: > 25000 nM
- TGI [35]: > 25 µM
- GI50 [36]: > 25000 nM
- TGI [36]: > 25 µM
- GI50 [37]: > 25000 nM
- TGI [37]: > 25 µM
- GI50 [38]: > 25000 nM
- TGI [38]: > 25 µM
- GI50 [39]: > 25000 nM
- TGI [39]: > 25000 nM
- GI50 [40]: > 25000 nM
- TGI [40]: > 25 µM
- GI50 [41]: > 25000 nM
- TGI [41]: > 25 µM
- GI50 [42]: > 25000 nM
- TGI [42]: > 25000 nM
- GI50 [43]: > 25000 nM
- TGI [43]: > 25 µM
- GI50 [44]: > 25000 nM
- TGI [44]: > 25 µM
- GI50 [45]: > 25000 nM
- TGI [45]: > 25000 nM
- GI50 [46]: > 25000 nM
- TGI [46]: > 25000 nM
- GI50 [47]: > 25000 nM
- TGI [47]: > 25 µM
- GI50 [48]: > 25000 nM
- TGI [48]: > 25 µM
- GI50 [49]: > 25 µM
- TGI [49]: > 25000 nM
- GI50 [50]: > 25 µM
- TGI [50]: > 25 µM
- GI50 [51]: > 25 µM
- TGI [51]: > 25 µM
- GI50 [52]: > 25000 nM
- TGI [52]: > 25 µM
- GI50 [53]: > 25000 nM
- TGI [53]: > 25000 nM
- GI50 [54]: > 25000 nM
- TGI [54]: > 25 µM
- GI50 [55]: > 25000 nM
- TGI [55]: > 25 µM
- GI50 [56]: > 25000 nM
- TGI [56]: > 25 µM
- GI50 [57]: > 25000 nM
- TGI [57]: > 25000 nM
